From patent US6623933B1 (priority 1999, dated 2003)

Legend:
[1] = tested on: primary cultures of rat hippocampal neurons; details: Weaver et al. 1997; cited from earlier work
[2] = tested on: primary cultures of rat hippocampal neurons; assay: NMDA-induced increase in [Ca2+]i, Fluo-3 AM; type: cell-based; details: 5 μM NMDA; steroid 100 μM (3α5β 50 μM)
Description: (§1) Principally neuronal cultures were prepared from hippocampal tissue of fetal Sprague-Dawley rats on day 18 of embryonic development, as previously described (Brewer et al., Brain Research 494: 65-74 (1989)). Briefly, hippocampal cells were dissociated by trituration in Ca^2+/Mg^2+-free Hank's basic salt solution (Gibco) supplemented with 4.2 mM bicarbonate, 1 mM sodium pyruvate, 20 mM HEPES, 3 mg/ml bovine serum albumin (BSA). Dissociated cells were then pelleted by centrifugation (500×g, 4 min). […] Cells were then plated onto poly-L-lysine-coated 24-well culture dishes (Nunclon) at a density of 15,000 cell/cm^2 and maintained in a humidified atmosphere containing 5% CO2/95% air at 37° C. After 48 h, nonneuronal cell division was inhibited by a 48 h exposure to 1 μM cytosine arabinoside. Cultures were subsequently maintained in serum-free DMEM plus defined components and were used for experiments 16 to 24 days after plating.
DMSO was also added to controls to maintain a constant final DMSO concentration of […].
(§2) All data are expressed as mean±standard error of the mean. Statistical significance was evaluated using 95% confidence limits unless otherwise noted.

[3] = tested on: middle cerebral artery occlusion in rats; details: Weaver et al. 1997; cited from earlier work
[4] = molecular target: T1, NR1100+NR2A NMDA receptor (Rattus norvegicus, UniProt P35439+Q00959); assay: NMDA-induced current (INMDA), Xenopus oocytes, Example 2; type: cell-based; details: 100 μM NMDA, 100 μM steroid
T1 construct: expressed in transfected cells; host or cells: Xenopus oocytes co-injected with NR1100 and NR2A cRNA
T1 sequence (Q00959 23-1464, other chains not shown): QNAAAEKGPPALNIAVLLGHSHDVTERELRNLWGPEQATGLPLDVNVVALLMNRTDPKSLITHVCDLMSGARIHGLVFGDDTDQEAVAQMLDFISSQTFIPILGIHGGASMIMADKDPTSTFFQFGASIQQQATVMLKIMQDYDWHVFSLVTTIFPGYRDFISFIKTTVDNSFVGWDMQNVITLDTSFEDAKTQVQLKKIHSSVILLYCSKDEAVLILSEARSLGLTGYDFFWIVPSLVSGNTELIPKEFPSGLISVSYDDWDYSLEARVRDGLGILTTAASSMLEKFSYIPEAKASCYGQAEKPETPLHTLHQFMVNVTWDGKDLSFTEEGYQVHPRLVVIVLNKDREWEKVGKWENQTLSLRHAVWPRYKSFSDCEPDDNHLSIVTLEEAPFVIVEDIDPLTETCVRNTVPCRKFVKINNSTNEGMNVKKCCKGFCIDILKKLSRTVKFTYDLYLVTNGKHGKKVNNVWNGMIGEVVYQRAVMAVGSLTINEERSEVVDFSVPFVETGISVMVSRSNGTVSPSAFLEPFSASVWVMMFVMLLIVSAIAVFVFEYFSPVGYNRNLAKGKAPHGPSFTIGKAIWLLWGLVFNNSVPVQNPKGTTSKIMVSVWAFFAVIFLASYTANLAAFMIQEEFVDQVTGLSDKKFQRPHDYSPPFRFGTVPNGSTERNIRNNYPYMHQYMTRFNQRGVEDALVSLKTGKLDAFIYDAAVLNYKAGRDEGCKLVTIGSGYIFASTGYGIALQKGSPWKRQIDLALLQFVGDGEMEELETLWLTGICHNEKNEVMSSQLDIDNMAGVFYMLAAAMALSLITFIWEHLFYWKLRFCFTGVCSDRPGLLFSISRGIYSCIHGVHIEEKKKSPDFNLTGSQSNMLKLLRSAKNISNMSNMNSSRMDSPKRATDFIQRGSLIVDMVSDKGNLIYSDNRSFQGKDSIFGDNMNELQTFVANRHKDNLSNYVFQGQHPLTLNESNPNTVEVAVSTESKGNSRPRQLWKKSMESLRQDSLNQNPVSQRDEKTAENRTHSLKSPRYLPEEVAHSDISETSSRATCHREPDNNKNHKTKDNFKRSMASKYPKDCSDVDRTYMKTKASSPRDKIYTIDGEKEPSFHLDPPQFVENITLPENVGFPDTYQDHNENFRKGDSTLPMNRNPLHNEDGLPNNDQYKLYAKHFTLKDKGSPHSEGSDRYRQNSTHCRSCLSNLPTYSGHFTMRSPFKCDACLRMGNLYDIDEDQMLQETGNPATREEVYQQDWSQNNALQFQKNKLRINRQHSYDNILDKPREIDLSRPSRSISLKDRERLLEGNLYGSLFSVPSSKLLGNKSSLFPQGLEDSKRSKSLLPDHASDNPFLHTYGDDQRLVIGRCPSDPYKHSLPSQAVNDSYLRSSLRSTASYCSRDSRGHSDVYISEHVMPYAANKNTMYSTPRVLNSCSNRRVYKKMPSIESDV
Description: NR1100 (NR1G) and NR2A clones were kindly provided by Dr. R. S. Zukin (Albert Einstein College of Medicine, New York, N.Y.) and Dr. S. Nakanishi (Faculty of Medicine, Kyoto University, Kyoto, Japan), respectively. mRNA was prepared through in vitro transcription of NR1100 and NR2A cDNAs using the mMessage mMachine kit (Ambion, Tex.). On the day following isolation, batches of 20-40 selected Xenopus oocytes were injected with 50 nl of prepared RNA solution (0.5 ng NR1100 and 5 ng of NR2A mRNA/oocyte). Oocytes were maintained in glass petri dishes containing Barth's solution (84 mM NaCl, 1 mM KCl, 2.4 mM NaHCO3, 0.82 mM MgSO4, 0.41 mM CaCl2, 0.33 mM Ca(NO3)2, 2.5 mM pyruvate, 0.1 mg/ml gentamycin, 7.5 mM Tris/HCl, pH 7.4) in an incubator at 18° C. Oocytes were used for electrophysiological experiments 4-10 days after injection.
Recordings from oocytes were obtained using the two electrode voltage-clamp mode with an Axoclamp-2A amplifier (Axon Instruments). The resistance of microelectrodes, pulled from glass capillaries and filled with 3 M KCl solution, was 2.5-3.5 M. Membrane potential was clamped at −70 mV. Drugs were applied by a gravity-driven external perfusion system. Drug application and data acquisition were carried out with custom-written software implemented in the SuperScopeII programming language (GW Instruments, Somerville, Mass.).
The degree of modulation of NMDA-induced Ca^2+ influx, cell death, and currents is expressed as the percent change, defined as (I′/I−1)×100%, where I and I′ are the NMDA-induced responses in the absence and presence of modulator, respectively. All data are expressed as mean±standard error of the mean. Statistical significance was evaluated using 95% confidence limits unless otherwise noted.

[5] = tested on: primary cultures of rat hippocampal neurons; assay: NMDA-induced neuronal death, trypan blue exclusion; type: cell-based; details: acute 30 μM NMDA; steroid 100 μM (3α5β 50 μM)
Description: as §1
Steroids were dissolved in DMSO (0.5% final concentration), and all treatment media contained 0.5% DMSO. […] Following exposure, cultures were washed 3 times with medium from sister cultures (conditioned medium). After the final wash, steroid or vehicle was reintroduced. Drugs were added to cultures in 25 μl of conditioned medium to yield a final volume of 0.25 ml per well. Except where otherwise noted, final steroid concentration was 100 μM.
The ability of neurons to exclude trypan blue was used to quantitate cell viability (Dawson et al., Proc Natl Acad Sci USA 88: 6368-6371 (1991)). […] Cultures were then fixed with 4% paraformaldehyde in PBS for 30 min, at whichtime the fixative was replaced with PBS. The number of stained and unstained neurons were counted in 4 high-power fields per culture well, using an inverted phase contrast microscope under both bright field and phase contrast settings. Experiments were performed in triplicate, and all assessments were made with the experimenter blind to the treatment of each culture well. Percent cell death is expressed as follows: (number of trypan blue stained neurons)/(total number of neurons)×100%.
as §2

| Compound | neuroprotection against NMDA-induced neuronal death [1] | reduction of NMDA-induced rise in [Ca2+]i [2] | inhibition of neuronal death after middle cerebral artery occlusion [3] | inhibition of INMDA [4] | inhibition of NMDA-induced neuronal death [5] |
| --- | --- | --- | --- | --- | --- |
| C[C@]12CC[C@@H]3c4ccc(O)cc4CC[C@H]3[C@@H]1CC[C@@H]2O [17β-estradiol] | neuroprotective against NMDA-induced neuronal death |  |  |  |  |
| pregnanolone hemisuccinate [3α5βHS] |  | approximately 40% | effective at inhibiting the neuronal death | about equally effective in inhibiting INMDA | 54±3% |
